Where two headings read alike, the source gives them in different places.
Test: Plasma and tissue distribution in SD rats
Format: in vivo
Details: for Tissue/Plasma Ratio (AUCinf) / Kp: SD rat; for Kp: rat, oral, read-out: Tissue/Plasma Ratio (AUCinf); for Cmax / Tmax / half-life / AUC0-inf / AUC0-24 / AUC0-last: PO 10 mg/kg
Text: The following Example describes the methods and data used to evaluate the tissue distribution of TYK2 inhibitors following the administration of either compound 1 or compound 2.
Thirty (30, 15/sex) SD rats supplied by Beijing Vital River Laboratory Animal Technology Co., Ltd. were used in this study. The animals were confirmed to be healthy before being assigned to the study. The room (s) was controlled and monitored for relative humidity (targeted mean range 40% to 70%) and temperature (targeted mean range 20° C. to 26° C.) with 15 or above air changes/hour. The room was on a 12-hour light/dark cycle except when interruptions were necessitated by study activities. Fresh drinking water (reverses osmosis) was available to all animals, ad libitum. Certified animal diet from certified vendor was available to all animals, ad libitum.
Animals were weighed prior to dose administration to calculate the actual dose volume. The body weights were in the range from 245.39 to 276.33 g for males and 182.29 to 215.69 g for females on the first dosing day. The animals in Groups 1 and 2 received a single oral gavage administration of test compound 1. Cage-side observations for the general health condition and appearance of the animal were performed before and after dosing and at each time point of sample collection. Unusual observations were recorded throughout the duration of the study.
The vehicle was 0.5% methyl cellulose (4000 cps) in water. The formulation was prepared according to the following steps. Group 1: 25.95 mg of compound 1 was weighed into a glass vial. 5000 μL of vehicle was added into the vial and stirred for 30 min at 1700 rpm to get a homogenous opaque suspension. 5000 μL of vehicle was added into the vial and stirred for 10 min at 1700 rpm to get a homogenous opaque suspension. 5000 μL+5000 μL+5000 μL+924 μL of vehicle was added into the vial and stirred for 10 min at 1700 rpm to get a homogenous opaque suspension. Group 2: 81.66 mg of compound 1 was weighed into a glass vial. 5000 μL of vehicle was added into the vial and stirred for 30 min at 1700 rpm to get a homogenous opaque suspension. 5000 μL of vehicle was added into the vial and stirred for 10 min at 1700 rpm to get a homogenous opaque suspension. 10 mL+10 mL+10 mL+20 mL+10 mL+10 mL+1580 μL of vehicle was added into the vial and stirred for 10 min at 1700 rpm to get a homogenous opaque suspension.
Blood (about 0.2 mL) was collected at each time point via jugular vein puncture from each study animal. The actual time for each sample collection was recorded. The acceptable deviations on sampling time were ±1 min for the time points pre-dose through 1 hour post-dose, and +5% of the nominal time for time points after 1 hour post-dose.
All blood samples were transferred into commercial tubes containing K2-EDTA. After blood was collected, the samples were placed on wet ice and processed for plasma within 60 minutes of collection by centrifugation at approximately 4° C., 3200×g for 10 minutes, and then quickly frozen over dry ice and kept at −60° C. or lower until LC-MS/MS analysis.
Following terminal blood sample collection, animals were conducted CO2 euthanasia, the chest and abdominal cavities were opened carefully lengthwise using scissors to expose the internal organs in preparation of tissue perfusion. A needle was used to puncture a small hole into the left ventricle of the heart, and then clamped with a hemostat. […] Fluid (cold 1×PBS) was infused until the liver pales (typically 2-3 minutes). Following perfusion, 14 kinds of tissues (spleen, bone marrow, adipose, brain, heart, kidney, liver, lung, skin, small intestine, large intestine, eye, gonads, and bladder) were collected from each animal, respectively.
Each tissue was weighed and homogenized on wet ice using homogenizing buffer (MeOH/15 mM PBS 1:2) at the ratio of 1:9 (1 g tissue with 9 mL buffer). The tissue homogenate was kept at −60° C. or lower until LC-MS/MS analysis. […]

[1] = Sprague-Dawley, epididymis and testis, male SD rat, Epididymis & Testis
[2] = Sprague-Dawley, male SD rat, Eyeball (left and right)
[3] = Sprague-Dawley, male SD rat, Fat
[4] = Sprague-Dawley, male SD rat, Heart
[5] = Sprague-Dawley, male SD rat, Kidney (left and right)
[6] = Sprague-Dawley, male SD rat, Large intestine
[7] = Sprague-Dawley, plasma, female SD rat
[8] = Sprague-Dawley, plasma, male SD rat
[9] = female SD rat, Eyeball (left and right)
[10] = female SD rat, Kidney (left and right)

With `C[C@@H](c1ccc(Nc2cc(Nc3ncccc3S(C)(=O)=O)ncn2)nc1)N1CC2(COC2)C1` [Compound 1, (S)—N^4-(5-(1-(2-oxa-6-azaspiro[3.3]heptan-6-yl)ethyl)pyridin-2-yl)-N^6-(3-(methylsulfonyl)pyridin-2-yl)pyrimidine-4,6-diamine] the “Tissue/Plasma Ratio (AUCinf)” value (Kidney) was 9.1, the “Tissue/Plasma Ratio (AUCinf)” value (Large Intestine) was 13 and the Kp (Sprague-Dawley (SD), bone marrow / plasma, Bone Marrow) was 4.3. It also gave a Cmax [1] of 350 ng/g, a Tmax [1] of 8 h and a Kp (Sprague-Dawley, adipose, Adipose) of 0.59. The Kp (Sprague-Dawley, bladder, Bladder) was 5, the Kp (Sprague-Dawley, eye, Eye) was 0.8 and the Kp (Sprague-Dawley, kidney, Kidney) was ~9. It also gave a Kp (Sprague-Dawley, large intestine, Large Intestine) of ~13, a Kp (Sprague-Dawley, liver, Liver) of 7.6 and a Kp (Sprague-Dawley, lung, Lung) of 2. The Kp (Sprague-Dawley, skin, Skin) was 3.2, the Kp (Sprague-Dawley, small intestine, Small Intestine) was 21 and the Kp (Sprague-Dawley, spleen, Spleen) was 5.4. The Cmax [2] was 327 ng/g, the Tmax [2] was 0.5 h and the half-life [2] was 4.03 h. The Cmax [3] was 464 ng/g, the Tmax [3] was 0.5 h and the half-life [3] was 3.08 h. It also gave a Cmax [4] of 1260 ng/g, a Tmax [4] of 0.5 h and a half-life [4] of 2.31 h. The Cmax [5] was 6140 ng/g, the Tmax [5] was 0.5 h and the half-life [5] was 3.79 h. For the same compound, the Cmax [6] was 5180 ng/g, the Tmax [6] was 8 h and the Cmax [7] was 1180 ng/mL. For the same compound, the Tmax [7] was 0.5 h, the half-life [7] was 2.39 h and the AUC0-inf (Sprague-Dawley, plasma, female SD rat, read-out: AUC0-inf) was 3610 ng·h/mL. For the same compound, the Cmax [8] was 1370 ng/mL, the Tmax [8] was 0.667 h and the half-life [8] was 2.75 h. The AUC0-inf (Sprague-Dawley, plasma, male SD rat, read-out: AUC0-inf) was 2920 ng·h/mL, the AUC0-24 (female SD rat, Bladder) was 17454 ng·h/g and the AUC0-inf (female SD rat, Bladder) was 17693 ng·h/g. The AUC0-last (female SD rat, Bladder) was 17454 ng·h/g, the Cmax (female SD rat, Bladder) was 4150 ng/g and the Tmax (female SD rat, Bladder) was 2 h. For the same compound, the half-life (female SD rat, Bladder) was 3.61 h, the AUC0-24 (female SD rat, Bone Marrow) was 17781 ng·h/g and the AUC0-inf (female SD rat, Bone Marrow) was 17791 ng·h/g. For the same compound, the AUC0-last (female SD rat, Bone Marrow) was 15823 ng·h/g, the Cmax (female SD rat, Bone Marrow) was 3840 ng/g and the Tmax (female SD rat, Bone Marrow) was 0.5 h. It also gave a half-life (female SD rat, Bone Marrow) of 2.52 h, an AUC0-24 [9] of 3253 ng·h/g and an AUC0-inf [9] of 3348 ng·h/g. For the same compound, the AUC0-last [9] was 3253 ng·h/g, the Cmax [9] was 449 ng/g and the Tmax [9] was 2 h. For the same compound, the half-life [9] was 4.51 h, the AUC0-24 (female SD rat, Fat) was 1725 ng·h/g and the AUC0-last (female SD rat, Fat) was 1725 ng·h/g. The Cmax (female SD rat, Fat) was 417 ng/g, the Tmax (female SD rat, Fat) was 2 h and the AUC0-24 (female SD rat, Heart) was 5608 ng·h/g. For the same compound, the AUC0-inf (female SD rat, Heart) was 5627 ng·h/g, the AUC0-last (female SD rat, Heart) was 4754 ng·h/g and the Cmax (female SD rat, Heart) was 1280 ng/g. For the same compound, the Tmax (female SD rat, Heart) was 0.5 h, the half-life (female SD rat, Heart) was 2.88 h and the AUC0-24 [10] was 36323 ng·h/g. For the same compound, the AUC0-inf [10] was 36373 ng·h/g, the AUC0-last [10] was 36323 ng·h/g and the Cmax [10] was 7800 ng/g. It also gave a Tmax [10] of 0.5 h, a half-life [10] of 2.46 h and an AUC0-24 (female SD rat, Large intestine) of 39634 ng·h/g. It also gave an AUC0-last (female SD rat, Large intestine) of 39634 ng·h/g, a Cmax (female SD rat, Large intestine) of 4670 ng/g and a Tmax (female SD rat, Large intestine) of 8 h. It also gave an AUC0-24 (female SD rat, Liver) of 29588 ng·h/g, an AUC0-inf (female SD rat, Liver) of 29655 ng·h/g and an AUC0-last (female SD rat, Liver) of 29588 ng·h/g. It also gave a Cmax (female SD rat, Liver) of 6310 ng/g, a Tmax (female SD rat, Liver) of 0.5 h and a half-life (female SD rat, Liver) of 2.67 h. The AUC0-24 (female SD rat, Lung) was 8773 ng·h/g, the AUC0-last (female SD rat, Lung) was 8773 ng·h/g and the Cmax (female SD rat, Lung) was 2180 ng/g. The Tmax (female SD rat, Lung) was 2 h, the AUC0-24 (female SD rat, Ovary & Uterus) was 5024 ng·h/g and the AUC0-inf (female SD rat, Ovary & Uterus) was 5028 ng·h/g. For the same compound, the AUC0-last (female SD rat, Ovary & Uterus) was 4408 ng·h/g, the AUC0-24 (female SD rat, Skin) was 3803 ng·h/g and the AUC0-last (female SD rat, Skin) was 3803 ng·h/g. For the same compound, the Cmax (female SD rat, Skin) was 893 ng/g, the Tmax (female SD rat, Skin) was 2 h and the AUC0-24 (female SD rat, Small intestine) was 59880 ng·h/g. It also gave an AUC0-inf (female SD rat, Small intestine) of 59932 ng·h/g, an AUC0-last (female SD rat, Small intestine) of 59880 ng·h/g and a Cmax (female SD rat, Small intestine) of 12300 ng/g. For the same compound, the Tmax (female SD rat, Small intestine) was 0.5 h and the half-life (female SD rat, Small intestine) was 2.3 h.
